Data from the METLIN SMRT retention time set (Domingo-Almenara et al. 2019).

Experiment: gradient 5% acetonitrile 3 min, to 50% in 2 min, to 85% in 15 min, held 3 min, 100 µL/min
Details: column: Zorbax Extend-C18 2.1 x 50 mm; eluents: water / acetonitrile, 0.1% formic acid
In short: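 Pure standards were analyzed in mixtures of ~100 molecules using HPLC coupled to a quadrupole time-of-flight mass spectrometer, in both positive and negative ionization mode. Separation used a Zorbax Extend-C18 column (2.1 × 50 mm, 1.8 μm) at 100 μL/min, with water and acetonitrile each containing 0.1% formic acid. Dead and dwell volumes were 40 μL and 900 μL, and data were collected over 3 months. Retention time was read from computationally picked adduct peaks, each inspected manually.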

Row | SMILES | RP-LC retention time
1 | CCNC(=O)c1cc(C)no1 | 596 s
2 | C(=C\CSc1ccccn1)/CSc1ccccn1 | 955 s
3 | CCOC(=O)c1[nH]c(C)c(CCC(=O)N2CCCC(C(=O)NC3CCCC3)C2)c1C (stereo unspecified) | 746 s
4 | Cc1ccc2c(c1)N(CC#N)N=C(C(=O)N1CCC(C)CC1)S2(=O)=O | 842 s
5 | CN(C)CCCNC(=O)C1CCCN(c2cnc3nccnc3c2)C1 (stereo unspecified) | 562 s
6 | CC(=O)N1CCN(c2nc3c(s2)CC(C(=O)Nc2ccccc2)CC3)CC1 (stereo unspecified) | 541 s
7 | COc1ccc(CC(=O)N2CCCC2c2cc(C)on2)cc1OC (stereo unspecified) | 716 s
8 | Cc1cccc(S(=O)(=O)N2CCC(c3nc(C(=O)N4CCCC4)c(C)o3)CC2)c1 | 902 s
9 | CCCNc1cc(N2CCCC(CCC(=O)NC(C)C)C2)ncn1 (stereo unspecified) | 616 s
10 | CC(C)(C)c1ccc(C(=O)NCCCn2ncccc2=O)cc1 | 731 s
11 | Cc1noc(C2(NC(=O)C3CCCCC3)CCCCC2)n1 | 873 s
12 | CS(=O)(=O)N[C@H]1C[C@@H]2C[C@H]1CN2C(=O)c1ccc(C(F)(F)F)cc1 | 571 s
13 | O=S(=O)(Nc1ccc(Cn2cncn2)cc1)c1ccc(Br)cc1 | 747 s
14 | O=C1CCCC(=O)C1CC1C(=O)CCCC1=O | 836 s
15 | COC1CCC12CCN(Cc1ccccc1C#N)CC2 (stereo unspecified) | 603 s
16 | CCc1nc(-c2csc(S(=O)(=O)N3CCC(C(=O)NC4CC4)CC3)c2)no1 | 766 s
17 | CC1=NOC(C)(CNC(=O)NC(C)(C)C)C1 (stereo unspecified) | 627 s
18 | CC(C)c1cc(=O)n(CC(=O)Nc2cccc3nsnc23)cn1 | 664 s
19 | CCC(C)c1c(N)n(S(=O)(=O)c2ccc(C)cc2)oc1=O (stereo unspecified) | 932 s
20 | CCCNC(=O)CCc1c(C)c(C(=O)OCC)c(C)n1C | 779 s
21 | CNC(=O)C1(C)CC(c2ccccc2)=NO1 (stereo unspecified) | 693 s
22 | Cc1cccc(-n2c(=O)c3c(cc(C)n3C)n(CC(=O)Nc3ccc(C)c(F)c3)c2=O)c1 | 866 s

More lines, now with the values ahead:

Row | RP-LC retention time | SMILES
23 | 629 s | Fc1ccccc1-c1nc(-c2ccc3c(c2)ncn3CCN2CCCC2)no1
24 | 629 s | O=C(C1CCN(c2cncnc2N2CCOCC2)CC1)N1CCN(c2ccccc2)CC1
25 | 944 s | CCn1c(=O)sc2cc(S(=O)(=O)N3CCC(C(=O)N4CCc5ccccc5C4)CC3)ccc21
26 | 579 s | COc1ccc(-c2ccc(CNCC3CCNCC3)o2)cc1Cl
27 | 742 s | CCN1CCn2cc(S(=O)(=O)Nc3ccc(F)c(C)c3)cc2C1=O
28 | 702 s | CC1=C(c2ccccc2)S(=O)(=O)N=C1N1CCC(NC(=O)C2CCCO2)CC1 (stereo unspecified)
29 | 1200 s | CCOc1ccc(NC(=O)c2c(C)sc3ncnc(N4CCCC(C)C4)c23)cc1 (stereo unspecified)
30 | 631 s | Cc1ccc2nc(C)cc(C(=O)NCC(C)C)c2c1
31 | 680 s | Cc1ccc(CNC(=O)NCC2Cn3cccc3C(=O)N2C)cc1 (stereo unspecified)
32 | 1060 s | Cc1ccc(CNC(=O)C2CCCN(c3nc4ccsc4c(=O)n3Cc3ccc(C)cc3)C2)cc1 (stereo unspecified)
33 | 682 s | O=C(Cn1c(C(F)(F)F)nc2cc3c(cc21)OCCO3)N1CCOCC1
34 | 1040 s | Cc1nc2cc(-c3noc(-c4nn(C)c5ccccc45)n3)ccc2o1
35 | 934 s | O=C(Nc1cnc(N2CCCCC2)nc1)c1ccc(F)cc1F
36 | 733 s | Cc1cc(=O)n(CC(=O)Nc2cc(F)cc(F)c2)c(N2CCCCC2)n1
37 | 1050 s | Cc1cc(C)c(S(=O)(=O)N2CCC(C(=O)NCc3csc(-c4ccccc4)n3)CC2)c(C)c1
38 | 803 s | COc1ccc(NC(=O)N2CCC(n3cnc4ccc(Cl)cc4c3=O)CC2)c(OC)c1
39 | 954 s | O=C(Nc1cnc(N2CCCCCC2)nc1)c1ccc(F)cc1F
40 | 631 s | O=C(Cn1nc2nc(Nc3ccc(F)cc3)ccn2c1=O)N1CCOCC1
41 | 896 s | CC(C)(C)c1noc(-c2ccc(-n3cnc(C(=O)NCC4CC4)c3)nc2)n1
42 | 775 s | O=C(Cc1ccccc1Cl)NC1CCN(c2cc(-c3ccc(F)cc3)[nH]n2)C1 (stereo unspecified)
43 | 823 s | COc1ccccc1-c1noc(C2CCCN2C(=O)Nc2cccc(C#N)c2)n1 (stereo unspecified)
44 | 708 s | Cn1ncc2c(N3CCOCC3)nc(C(=O)NCc3ccc(F)cc3)nc21
45 | 570 s | CC1CCN(c2ccc(-c3noc(CN4CCN(c5ccccn5)CC4)n3)cn2)CC1
46 | 848 s | Cc1nc(SCC(=O)NCc2ccccc2Cl)cc(-c2ccccn2)n1
